The source of these data is BindingDB's records for patent US11787780 (Corcept Therapeutics, 2023).

The experiment deals with T1, Glucocorticoid receptor (Homo sapiens, UniProt P04150).
T1 sequence (P04150 whole entry): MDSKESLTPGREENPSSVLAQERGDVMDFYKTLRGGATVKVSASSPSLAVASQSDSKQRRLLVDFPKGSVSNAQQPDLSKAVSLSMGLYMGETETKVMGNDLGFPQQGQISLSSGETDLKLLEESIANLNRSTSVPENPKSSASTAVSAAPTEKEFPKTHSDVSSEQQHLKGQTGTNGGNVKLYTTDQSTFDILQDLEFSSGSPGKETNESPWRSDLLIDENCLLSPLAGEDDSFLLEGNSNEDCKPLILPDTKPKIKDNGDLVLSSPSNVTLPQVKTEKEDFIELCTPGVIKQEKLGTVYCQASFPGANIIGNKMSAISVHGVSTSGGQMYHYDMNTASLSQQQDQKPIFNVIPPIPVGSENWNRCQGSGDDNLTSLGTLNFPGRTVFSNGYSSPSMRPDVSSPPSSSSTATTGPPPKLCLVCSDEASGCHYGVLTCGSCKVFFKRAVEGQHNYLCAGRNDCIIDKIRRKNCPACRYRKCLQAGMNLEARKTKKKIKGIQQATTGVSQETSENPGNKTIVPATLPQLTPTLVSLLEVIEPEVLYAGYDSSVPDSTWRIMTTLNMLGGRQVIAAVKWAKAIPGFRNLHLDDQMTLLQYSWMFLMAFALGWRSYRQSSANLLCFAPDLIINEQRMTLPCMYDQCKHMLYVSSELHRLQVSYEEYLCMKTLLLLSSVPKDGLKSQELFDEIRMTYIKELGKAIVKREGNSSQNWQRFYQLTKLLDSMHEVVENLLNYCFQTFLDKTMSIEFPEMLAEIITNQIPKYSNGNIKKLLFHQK
In words: GR Binding Assay. As to the method:
Binding of test compounds to the glucocorticoid receptor (GR) is determined using a fluorescence polarisation (FP) assay utilising a recombinant ligand binding domain (LBD) of GR. The test compounds are assessed by their ability to displace a fluorescently tagged ligand and detection of the resulting decrease in fluorescence polarisation.
The IC50 is the concentration that inhibits the measured activity by half. Consider `Cc1cc2c(cnn2-c2ccc(=O)n(C)c2)cc1C1(Cc2ccccc2)CCN(S(=O)(=O)c2cnn(C(C)C)n2)C1` (stereo not drawn) [US11787780, Example 320], for which the 50% inhibitory concentration (IC50) was found to be 0.012 µM. Regarding `Cc1cc2c(cnn2-c2ccc(F)cc2)cc1C1(Cc2ccccc2)CC(O)N(Cc2ccccc2)C1=O` (stereo not drawn) [US11787780, Example 336], the IC50 stood at 0.18 µM. In turn, `CCCn1cc(S(=O)(=O)N2CCC(Cc3ccccn3)(c3cc4cnn(-c5ccc(F)cc5)c4cc3C)C2)cn1` (stereo not drawn) [US11787780, Example 152] registered an IC50 of 0.013 µM.
